The source of these data is patent US8399452B2, “Dibenzo[b,f][1,4]oxazepin-11-yl-N-hydroxybenzamides as HDAC inhibitors” (Methylgene Inc., priority 2006, dated 2013).

Where only a bound is given, the exact number is not on record here.

The target in one assay is histone deacetylase (HDAC Enzyme). In words: Inhibition of Histone Deacetylase Enzymatic Activity (Boc-Lys(Ac)-AMC, Fluor-de-Lys developer). Type of assay: biochemical. The conditions noted are these: Table 9; read-out: HDAC Inhibition (IC50 μM) HDAC Enzyme. How it is done:
The following protocol is used to assay the compounds of the invention.
The mixture is pre-incubated for 5 minutes at room temperature. The reaction is started by bringing the temperature to 37° C. and adding 16 μl substrate. Total reaction volume is 50 μl.
In the Tables 8, 9 and 10, A≦[…]<B≦0.1 μM; 0.1 μM<C≦1 μM; and 1 μM<D≦10 μM.
As to `O=C(NO)c1cnc(N2CC3CC(CN(c4cc(C(F)(F)F)ccn4)C3)C2)nc1` [N-hydroxy-2-(7-(4-(trifluoromethyl)pyridin-2-yl)-3,7-diazabicyclo[3.3.1]nonan-3-yl)pyrimidine-5-carboxamide], the 50% inhibitory concentration (IC50) was in the range of 0.1 to 1 µM.

Consider `O=C(NO)c1cnc(N2C[C@@H]3C[C@H]2CN3C(=O)OC2CCOCC2)nc1` [(1S,4S)-tetrahydro-2H-pyran-4-yl 5-(5-(hydroxycarbamoyl)pyrimidin-2-yl)-2,5-diazabicyclo[2.2.1]heptane-2-carboxylate], for which the IC50 is under 0.05 µM.

Turning to `O=C(NO)c1cnc(N2C[C@@H]3C[C@H]2CN3C(=O)c2ccccc2)nc1` [2-((1S,4S)-5-benzoyl-2,5-diazabicyclo[2.2.1]heptan-2-yl)-N-hydroxypyrimidine-5-carboxamide], the IC50 was under 0.05 µM.

As for `O=C(NO)c1cnc(N2C[C@@H]3C[C@H]2CN3c2cncc(C(F)(F)F)c2)nc1` [N-hydroxy-2-((1S,4S)-5-(5-(trifluoromethyl)pyridin-3-yl)-2,5-diazabicyclo[2.2.1]heptan-2-yl)pyrimidine-5-carboxamide], the IC50 is under 0.05 µM.

In the case of `O=C(NO)c1cnc(N2C[C@@H]3C[C@H]2CN3c2cccc(S(F)(F)(F)(F)F)c2)nc1`, the 50% inhibitory concentration (IC50) was under 0.05 µM.

Consider `CC(C)COC(=O)N1C[C@@H]2C[C@H]1CN2c1ncc(C(=O)NO)cn1` [(1S,4S)-isobutyl 5-(5-(hydroxycarbamoyl)pyrimidin-2-yl)-2,5-diazabicyclo[2.2.1]heptane-2-carboxylate], for which the IC50 was under 0.05 µM.

On to `O=C(NO)c1ccc(N2C[C@@H]3C[C@H]2CN3c2cc(C(F)(F)F)ccn2)cc1` [N-hydroxy-4-((1S,4S)-5-(4-(trifluoromethyl)pyridin-2-yl)-2,5-diazabicyclo[2.2.1]heptan-2-yl)benzamide], for which the IC50 was in the range of 0.1 to 1 µM.

As for `O=C(NO)c1cnc(N2C[C@@H]3C[C@H]2CN3c2ccc3c(c2)OC(F)(F)O3)nc1` [2-((1S,4S)-5-(2,2-difluorobenzo[d][1,3]dioxol-5-yl)-2,5-diazabicyclo[2.2.1]heptan-2-yl)-N-hydroxypyrimidine-5-carboxamide], the IC50 was under 0.05 µM.

Consider `O=C(NO)c1cnc(N2C[C@@H]3C[C@H]2CN3c2cccc(C(F)(F)F)c2)s1` [N-hydroxy-2-((1S,4S)-5-(3-(trifluoromethyl)phenyl)-2,5-diazabicyclo[2.2.1]heptan-2-yl)thiazole-5-carboxamide], for which the IC50 was under 0.05 µM.

On to `Cc1ccc(N2C[C@H]3C[C@@H]2CN3c2ncc(C(=O)NO)cn2)cc1` [N-hydroxy-2-((1R,4R)-5-p-tolyl-2,5-diazabicyclo[2.2.1]heptan-2-yl)pyrimidine-5-carboxamide], for which the IC50 is under 0.05 µM.

`O=C(NO)c1cnc(N2C[C@@H]3C[C@H]2CN3c2cc(C(F)(F)F)cc(C(F)(F)F)c2)nc1` [2-((1S,4S)-5-(3,5-bis(trifluoromethyl)phenyl)-2,5-diazabicyclo[2.2.1]heptan-2-yl)-N-hydroxypyrimidine-5-carboxamide]: the half-maximal inhibitory concentration (IC50) was under 0.05 µM.

On to `O=C(NO)c1cnc(N2C[C@@H]3C[C@H]2CN3C(=O)OCc2ccccc2)nc1` [(1S,4S)-benzyl 5-(5-(hydroxycarbamoyl)pyrimidin-2-yl)-2,5-diazabicyclo[2.2.1]heptane-2-carboxylate], for which the IC50 was under 0.05 µM.

Staying with this assay, now noted: Table 10; read-out: HDAC Inhibition (IC50 μM) HDAC Enzyme.
Take `O=C(NO)c1cnc(N2C[C@H]3C[C@@]3(c3cccc(C(F)(F)F)c3)C2)nc1`: the IC50 was 0.1 to 1 µM.

Consider `O=C(CCCN1C(=O)c2cccnc2N(C2CC2)c2ccccc21)NO` [4-(11-cyclopropyl-5-oxo-5H-benzo[b]pyrido[2,3-e][1,4]diazepin-6(11H)-yl)-N-hydroxybutanamide], for which the IC50 was 1 to 10 µM.

With `O=C(NO)c1cccc(CN(c2ccccc2)c2ccccc2)c1` [3-((diphenylamino)methyl)-N-hydroxybenzamide], the IC50 is 1 to 10 µM.

`O=C(/C=C/c1ccc(CN2C(=O)c3ccccc3Oc3ccccc32)cc1)NO`: the half-inhibitory concentration (IC50) is under 0.05 µM.

Regarding `O=C1CN=C(c2ccc(C(=O)NO)cc2)c2cc(Br)sc2N1` [(Z)-4-(7-bromo-2-oxo-2,3-dihydro-1H-thieno[2,3-e][1,4]diazepin-5-yl)-N-hydroxybenzamide], the 50% inhibitory concentration (IC50) lay in the range of 0.1 to 1 µM.

Regarding `O=C(CCCCCCCN1C(=O)c2ccccc2Oc2ccccc21)NO` [N-hydroxy-8-(11-oxodibenzo[b,f][1,4]oxazepin-10(11H)-yl)octanamide], the half-maximal inhibitory concentration (IC50) was in the range of 0.05 to 0.1 µM.

For `O=C(NO)c1ccc(/C=C/CN2C(=O)c3ccccc3Oc3ccccc32)cc1`, the IC50 was in the range of 0.05 to 0.1 µM.

For `O=C(NO)c1ccc(C#CCN2C(=O)c3ccccc3Oc3ccccc32)cc1` [N-hydroxy-4-(3-(11-oxodibenzo[b,f][1,4]oxazepin-10(11H)-yl)prop-1-ynyl)benzamide], the IC50 is under 0.05 µM.

For `O=C(NO)c1ccc(CON=C2c3ccccc3CCc3ccccc32)cc1`, the IC50 was 0.1 to 1 µM.

Turning to `O=C(NO)c1ccc(NC2c3ccccc3CCc3ccccc32)nc1`, the half-inhibitory concentration (IC50) was under 0.05 µM.

As to `CN(c1ncc(C(=O)NO)cn1)C1c2ccccc2CCc2ccccc21`, the IC50 is under 0.05 µM.

Take `O=C(CCCN1c2ccccc2C=Cc2ccccc21)NO` [(Z)-4-(5H-dibenzo[b,f]azepin-5-yl)-N-hydroxybutanamide]: the half-maximal inhibitory concentration (IC50) lay in the range of 1 to 10 µM.

Regarding `O=C(CCCCCC(=O)NC1c2ccccc2C=Cc2ccccc21)NO`, the IC50 lay in the range of 0.1 to 1 µM.

As to `O=C(CCCCCCC(=O)NC1c2ccccc2C=Cc2ccccc21)NO`, the concentration for half-maximal inhibition (IC50) lay in the range of 0.1 to 1 µM.

Regarding `O=C(CCCCCN1c2ccccc2CCc2ccccc21)NO` [6-(10,11-dihydro-5H-dibenzo[b,f]azepin-5-yl)-N-hydroxyhexanamide], the IC50 was under 0.05 µM.

For `O=C(CCCCCN1C(=O)c2ccccc2Oc2ccccc21)NO` [N-hydroxy-6-(11-oxodibenzo[b,f][1,4]oxazepin-10(11H)-yl)hexanamide], the IC50 was under 0.05 µM.

Take `O=C(CCCCCON=c1c2ccccc2ccc2ccccc12)NO`: the 50% inhibitory concentration (IC50) fell in the range of 0.1 to 1 µM.

Consider `O=C(CCCCCCn1c(=O)c2ccccc2c2ccccc21)NO` [N-hydroxy-7-(6-oxophenanthridin-5(6H)-yl)heptanamide], for which the concentration for half-maximal inhibition (IC50) was under 0.05 µM.

As to `O=C(NO)c1ccc(Cn2c3c(c4ccccc42)CCCCCC3)cc1` [4-((6,7,8,9,10,11-hexahydro-5H-cycloocta[b]indol-5-yl)methyl)-N-hydroxybenzamide], the half-inhibitory concentration (IC50) was in the range of 0.1 to 1 µM.

Take `O=C(NO)c1cnc(N2CCC[C@H]2c2nc3ccccc3[nH]2)nc1` [(S)-2-(2-(1H-benzo[d]imidazol-2-yl)pyrrolidin-1-yl)-N-hydroxypyrimidine-5-carboxamide]: the 50% inhibitory concentration (IC50) lay in the range of 0.1 to 1 µM.

Consider `O=C(NO)c1cccc(CN2c3ccccc3C=Cc3ccccc32)c1` [(Z)-3-((5H-dibenzo[b,f]azepin-5-yl)methyl)-N-hydroxybenzamide], for which the 50% inhibitory concentration (IC50) lay in the range of 0.1 to 1 µM.

Staying with this assay, now noted: read-out: HDAC Inhibtion (IC50 μM) HDAC Enzyme.
Regarding `O=C(NO)c1cccc(C2=Nc3ccccc3Oc3ccccc32)c1` [(Z)-3-(dibenzo[b,f][1,4]oxazepin-11-yl)-N-hydroxybenzamide], the IC50 lay in the range of 0.1 to 1 µM.

As to `O=C(NO)c1ccc(C2=Nc3ccccc3Oc3ccccc32)cc1F` [(Z)-4-(dibenzo[b,f][1,4]oxazepin-11-yl)-2-fluoro-N-hydroxybenzamide], the half-maximal inhibitory concentration (IC50) is 0.1 to 1 µM.

For the compound `O=C(NO)c1ccc2c(c1)N=C(c1ccncc1)c1ccccc1O2` [(Z)-N-hydroxy-11-(pyridin-4-yl)dibenzo[b,f][1,4]oxazepine-8-carboxamide], the IC50 fell in the range of 0.1 to 1 µM.

Turning to `COc1cccc2c1Oc1ccc(C(F)(F)F)cc1N=C2c1ccc(C(=O)NO)cc1` [(Z)-N-hydroxy-4-(4-methoxy-8-(trifluoromethyl)dibenzo[b,f][1,4]oxazepin-11-yl)benzamide], the IC50 lay in the range of 0.1 to 1 µM.

On to `O=C(NO)c1ccc(C2=Nc3ccccc3Oc3cnccc32)cc1` [(Z)-4-(benzo[b]pyrido[4,3-f][1,4]oxazepin-5-yl)-N-hydroxybenzamide], for which the IC50 was in the range of 0.1 to 1 µM.

As for `O=C(NO)c1ccc(C2=Nc3ccccc3Oc3cc(N4CCOCC4)ccc32)cc1` [(Z)-N-hydroxy-4-(3-morpholinodibenzo[b,f][1,4]oxazepin-11-yl)benzamide], the IC50 lay within 0.1 to 1 µM.

`O=C(NO)c1ccc(CNC2=Nc3ccccc3N(C3CC3)c3ccccc32)cc1` [(E)-4-((5-cyclopropyl-5H-dibenzo[b,e][1,4]diazepin-11-ylamino)methyl)-N-hydroxybenzamide]: the half-inhibitory concentration (IC50) is 0.1 to 1 µM.

Turning to `CN1CCN(C2=Nc3cc(C(=O)NO)ccc3Oc3ccccc32)CC1`, the IC50 lay in the range of 0.1 to 1 µM.

Consider `O=C(NO)c1ccc(C2=Nc3ccccc3[S+]([O-])c3ccccc32)cc1` (stereo not drawn), for which the IC50 lay in the range of 0.1 to 1 µM.

For `O=C(NO)c1ccc(C2=Nc3ccccc3N(C3CC3)c3ncccc32)cc1` [(Z)-4-(11-cyclopropyl-11H-benzo[b]pyrido[2,3-e][1,4]diazepin-5-yl)-N-hydroxybenzamide], the concentration for half-maximal inhibition (IC50) is under 0.05 µM.

As to `O=C(NO)c1ccc(C2=Nc3ccccc3N(CCCN3CCOCC3)c3ncccc32)cc1` [(Z)-N-hydroxy-4-(11-(3-morpholinopropyl)-11H-benzo[b]pyrido[2,3-e][1,4]diazepin-5-yl)benzamide], the IC50 is 0.1 to 1 µM.

In the case of `O=C(NO)c1ccc(C2=Nc3ccccc3Oc3ccc(Cl)cc32)cc1` [(Z)-4-(2-chlorodibenzo[b,f][1,4]oxazepin-11-yl)-N-hydroxybenzamide], the 50% inhibitory concentration (IC50) was under 0.05 µM.

As for `O=C(NO)c1ccc(C2=Nc3ccccc3Nc3ccccc32)cc1` [(Z)-4-(5H-dibenzo[b,e][1,4]diazepin-11-yl)-N-hydroxybenzamide], the half-inhibitory concentration (IC50) fell in the range of 0.1 to 1 µM.

Consider `O=C(NO)c1ccc(C2=Nc3ccccc3Oc3c[n+]([O-])ccc32)cc1` [(Z)-5-(4-(hydroxycarbamoyl)phenyl)benzo[b]pyrido[4,3-f][1,4]oxazepine 2-oxide], for which the IC50 is 0.1 to 1 µM.

Regarding `COCCOc1cccc2c1Oc1ccccc1N=C2c1ccc(C(=O)NO)cc1` [(Z)-N-hydroxy-4-(4-(2-methoxyethoxy)dibenzo[b,f][1,4]oxazepin-11-yl)benzamide], the half-maximal inhibitory concentration (IC50) is under 0.05 µM.
